Results reported in patent US20240110220A1, “DETECTING BETA-LACTAMASE ENZYME ACTIVITY” (COMMISSARIAT A L'ENERGIE ATOMIQUE ET AUX ENERGIES …, priority 2021, published 2024).

Test system: bacterial colonies
Assay: Validation of the rapid test strip on bacterial colonies sensitive or resistant to third-generation cephalosporins (Table 12)
Format: biochemical
Set-up: key: A signal on the TL is considered as “P”; An absence of signal on the TL is defined as “N”
Description: In order to validate the test strip on bacterial colonies for its clinical use, […].
In order to carry out these tests, all of the solutions below have been prepared in the buffer strip having, for composition: 0.1 M pH 8 Tris buffer/HCL+0.15 M NaCl+0.5% Tween 20+1% chaps+0.01% sodium azide. […] The tracer is in dried format on the CP. […] A CL was produced. It consists of anti-tracer antibodies. The migration is carried out in a plastic cassette.
A bacterial colony was sampled from an URI-4 agar with a 1 μl ose, then deposited in the previously prepared Eppendorf tube. The tube was vortexed for five seconds, then incubated for 30 minutes at ambient temperature. Once the incubation was finished, 100 μl was sampled and deposited on the test strip. The reading is carried out after 10 minutes migration. A signal on the TL is considered as “P”. An absence of signal on the TL is defined as “N”.

## CO/N=C(\C(=O)N[C@@H]1C(=O)N2C(C(=O)O)=C(COC(C)=O)CS[C@H]12)c1csc(N)n1 [non-hydrolysed cefotaxime, cefotaxime]
C. freundii, CMY-135 + MOX-9 + OXA-372 + OXA-10, isolate number 1, strains capable of hydrolysing cefotaxime
  results of the test: P
C. freundii, CMY-150 + LMB-1, isolate number 1, strains capable of hydrolysing cefotaxime
  results of the test: P
C. freundii, CTX-M + VIM + OXA-48, isolate number 1, strains capable of hydrolysing cefotaxime
  results of the test: P
C. freundii, CTX-M-1, isolate number 1, strains capable of hydrolysing cefotaxime
  results of the test: P
C. freundii, CTX-M-15 + TEM-1 + CMY-48 + OXA-48 like, isolate number 1, strains capable of hydrolysing cefotaxime
  results of the test: P
C. freundii, CTX-M-15, isolate number 1, strains capable of hydrolysing cefotaxime
  results of the test: P
C. freundii, N/A, isolate number 1, strains not capable of hydrolysing cefotaxime
  results of the test: N
C. freundii, SHV-12 + TEM-1 + OXA-48, isolate number 1, strains capable of hydrolysing cefotaxime
  results of the test: P
C. freundii, SHV-12, isolate number 1, strains capable of hydrolysing cefotaxime
  results of the test: P
C. freundii, TEM-1 + KPC-2, isolate number 1, strains capable of hydrolysing cefotaxime
  results of the test: P
C. freundii, TEM-1 + VIM-2 + OXA-9 + OXA-10, isolate number 1, strains capable of hydrolysing cefotaxime
  results of the test: P
C. freundii, TEM-1 + VIM-2, isolate number 1, strains capable of hydrolysing cefotaxime
  results of the test: P
C. freundii, TEM-3 + Overexpressed AmpC, isolate number 2, strains capable of hydrolysing cefotaxime
  results of the test: P
C. koserii, CTX-M-1, isolate number 1, strains capable of hydrolysing cefotaxime
  results of the test: P
C. koserii, TEM-1 + OXA-48, isolate number 1, strains capable of hydrolysing cefotaxime
  results of the test: P
E. asburiae, IMI-2, isolate number 2, strains not capable of hydrolysing cefotaxime
  results of the test: N
E. asburiae, IMI-17, isolate number 1, strains not capable of hydrolysing cefotaxime
  results of the test: N
E. cloacae, CTX-M-9, isolate number 1, strains capable of hydrolysing cefotaxime
  results of the test: P
E. cloacae, FRI-1, isolate number 1, strains capable of hydrolysing cefotaxime
  results of the test: P
E. cloacae, GES-6, isolate number 1, strains capable of hydrolysing cefotaxime
  results of the test: P
E. cloacae, GIM-1, isolate number 1, strains capable of hydrolysing cefotaxime
  results of the test: P
E. cloacae, IMI-1, isolate number 1, strains not capable of hydrolysing cefotaxime
  results of the test: N
E. cloacae, IMI-3 + Overexpressed AmpC, isolate number 1, strains capable of hydrolysing cefotaxime
  results of the test: P
E. cloacae, N/A, isolate number 2, strains not capable of hydrolysing cefotaxime
  results of the test: N
E. cloacae, Overexpressed AmpC, isolate number 7, strains capable of hydrolysing cefotaxime
  results of the test: P
E. cloacae, TEM-3, isolate number 1, strains capable of hydrolysing cefotaxime
  results of the test: P
E. cloacae, TMB-1, isolate number 1, strains capable of hydrolysing cefotaxime
  results of the test: P
E. coli, CTX-M + NDM-5 + OXA-181, isolate number 1, strains capable of hydrolysing cefotaxime
  results of the test: P
E. coli, CTX-M + SHV + NDM-1 + OXA-48, isolate number 1, strains capable of hydrolysing cefotaxime
  results of the test: P
E. coli, CTX-M-9 + TEM-1 + KPC-2, isolate number 1, strains capable of hydrolysing cefotaxime
  results of the test: P
E. coli, CTX-M-15 + CMY-2 + OXA-204 + OXA-1, isolate number 1, strains capable of hydrolysing cefotaxime
  results of the test: P
E. coli, CTX-M-15 + CMY-4 + OXA-204 + OXA-1, isolate number 1, strains capable of hydrolysing cefotaxime
  results of the test: P
E. coli, CTX-M-15 + CMY-4 + OXA-204, isolate number 1, strains capable of hydrolysing cefotaxime
  results of the test: P
E. coli, CTX-M-15 + CMY-6 + NDM-4, isolate number 1, strains capable of hydrolysing cefotaxime
  results of the test: P
E. coli, CTX-M-15 + NDM-6 + OXA-1, isolate number 1, strains capable of hydrolysing cefotaxime
  results of the test: P
E. coli, CTX-M-15 + OXA-232 + OXA-1, isolate number 1, strains capable of hydrolysing cefotaxime
  results of the test: P
E. coli, CTX-M-15 + TEM-1 + CMY + NDM-1, isolate number 1, strains capable of hydrolysing cefotaxime
  results of the test: P
E. coli, CTX-M-93, isolate number 1, strains not capable of hydrolysing cefotaxime
  results of the test: N
E. coli, TEM-1 + CMY-16 + NDM-1 + OXA-1 + OXA-10, isolate number 1, strains capable of hydrolysing cefotaxime
  results of the test: P
E. coli, TEM-1 + NDM-9 + OXA-1, isolate number 1, strains capable of hydrolysing cefotaxime
  results of the test: P
K. oxytoca, CTX-M-15, isolate number 2, strains capable of hydrolysing cefotaxime
  results of the test: P
K. oxytoca, DHA-1 + SHV-75, isolate number 1, strains capable of hydrolysing cefotaxime
  results of the test: P
K. pneumoniae, CMY-4 + OXA-204, isolate number 1, strains capable of hydrolysing cefotaxime
  results of the test: P
K. pneumoniae, CTX-M + KPC-3, isolate number 1, strains capable of hydrolysing cefotaxime
  results of the test: P
K. pneumoniae, CTX-M + MCR-1, isolate number 2, strains capable of hydrolysing cefotaxime
  results of the test: P
K. pneumoniae, CTX-M + NDM-1 + OXA-232, isolate number 1, strains capable of hydrolysing cefotaxime
  results of the test: P
K. pneumoniae, CTX-M + NDM-4 + KPC-2, isolate number 1, strains capable of hydrolysing cefotaxime
  results of the test: P
K. pneumoniae, CTX-M + NDM-5 + OXA-232, isolate number 1, strains capable of hydrolysing cefotaxime
  results of the test: P
K. pneumoniae, CTX-M + OXA-370, isolate number 1, strains capable of hydrolysing cefotaxime
  results of the test: P
K. pneumoniae, CTX-M + OXA-519, isolate number 1, strains capable of hydrolysing cefotaxime
  results of the test: P
K. pneumoniae, CTX-M + SHV-11 + TEM-1 + OXA-162, isolate number 1, strains capable of hydrolysing cefotaxime
  results of the test: P
K. pneumoniae, CTX-M + SHV-12 + GES-5, isolate number 1, strains capable of hydrolysing cefotaxime
  results of the test: P
K. pneumoniae, CTX-M-2, isolate number 1, strains capable of hydrolysing cefotaxime
  results of the test: P
K. pneumoniae, CTX-M-3 + SHV-1 + TEM-1 + VIM-19, isolate number 1, strains capable of hydrolysing cefotaxime
  results of the test: P
K. pneumoniae, CTX-M-3, isolate number 1, strains capable of hydrolysing cefotaxime
  results of the test: P
K. pneumoniae, CTX-M-8, isolate number 1, strains capable of hydrolysing cefotaxime
  results of the test: P
K. pneumoniae, CTX-M-14 + SHV-11 + TEM-1, isolate number 1, strains capable of hydrolysing cefotaxime
  results of the test: P
K. pneumoniae, CTX-M-15 + SHV-1 + TEM-1 + OXA-232 + OXA-1, isolate number 1, strains capable of hydrolysing cefotaxime
  results of the test: P
K. pneumoniae, CTX-M-15 + SHV-1 + TEM-1, isolate number 1, strains capable of hydrolysing cefotaxime
  results of the test: P
K. pneumoniae, CTX-M-15 + SHV-1, isolate number 1, strains capable of hydrolysing cefotaxime
  results of the test: P
K. pneumoniae, CTX-M-15 + SHV-11 + TEM-1 + NDM-1 + OXA-1 + OXA-181, isolate number 1, strains capable of hydrolysing cefotaxime
  results of the test: P
K. pneumoniae, CTX-M-15 + SHV-11 + TEM-1 + NDM-1 + OXA-1, isolate number 1, strains capable of hydrolysing cefotaxime
  results of the test: P
K. pneumoniae, CTX-M-15 + SHV-11, isolate number 1, strains capable of hydrolysing cefotaxime
  results of the test: P
K. pneumoniae, CTX-M-15 + SHV-27 + TEM-1 + NDM-1 + OXA-1 + OXA-181, isolate number 1, strains capable of hydrolysing cefotaxime
  results of the test: P
K. pneumoniae, CTX-M-15 + SHV-28 + TEM-1 + CMY + OXA-204, isolate number 1, strains capable of hydrolysing cefotaxime
  results of the test: P
K. pneumoniae, CTX-M-15 + SHV-99 + TEM-1, isolate number 1, strains capable of hydrolysing cefotaxime
  results of the test: P
K. pneumoniae, CTX-M-15 + TEM-1 + OXA-48, isolate number 1, strains capable of hydrolysing cefotaxime
  results of the test: P
K. pneumoniae, CTX-M-15 + TEM, isolate number 1, strains capable of hydrolysing cefotaxime
  results of the test: P
K. pneumoniae, CTX-M-15, isolate number 1, strains capable of hydrolysing cefotaxime
  results of the test: P
K. pneumoniae, CTX-M-18, isolate number 1, strains capable of hydrolysing cefotaxime
  results of the test: P
K. pneumoniae, CTX-M-19, isolate number 1, strains capable of hydrolysing cefotaxime
  results of the test: P
K. pneumoniae, DHA-2, isolate number 1, strains capable of hydrolysing cefotaxime
  results of the test: P
K. pneumoniae, GES-1, isolate number 1, strains capable of hydrolysing cefotaxime
  results of the test: P
K. pneumoniae, IMP-8, isolate number 1, strains capable of hydrolysing cefotaxime
  results of the test: P
K. pneumoniae, KPC + VIM, isolate number 1, strains capable of hydrolysing cefotaxime
  results of the test: P
K. pneumoniae, KPC-3, isolate number 1, strains capable of hydrolysing cefotaxime
  results of the test: P
K. pneumoniae, KPC-4 + NDM-7, isolate number 1, strains capable of hydrolysing cefotaxime
  results of the test: P
K. pneumoniae, MCR-1 + SHV-2 + SHV-106 + mgrB truncated in orf by IS5, isolate number 1, strains capable of hydrolysing cefotaxime
  results of the test: P
K. pneumoniae, NDM-1, isolate number 1, strains capable of hydrolysing cefotaxime
  results of the test: P
K. pneumoniae, NDM-5 + VIM-1 + OXA-181, isolate number 1, strains capable of hydrolysing cefotaxime
  results of the test: P
K. pneumoniae, OXA-48, isolate number 1, strains capable of hydrolysing cefotaxime
  results of the test: P
K. pneumoniae, OXA-163, isolate number 2, strains capable of hydrolysing cefotaxime
  results of the test: P
K. pneumoniae, OXA-517, isolate number 1, strains capable of hydrolysing cefotaxime
  results of the test: P
K. pneumoniae, SHV-2a, isolate number 1, strains capable of hydrolysing cefotaxime
  results of the test: P
K. pneumoniae, SHV-5 + IMP-1, isolate number 1, strains capable of hydrolysing cefotaxime
  results of the test: P
K. pneumoniae, SHV-5 + VIM-1, isolate number 2, strains capable of hydrolysing cefotaxime
  results of the test: P
K. pneumoniae, SHV-11 + OXA-48, isolate number 1, strains capable of hydrolysing cefotaxime
  results of the test: P
K. pneumoniae, SHV-11 + TEM-1 + KPC-3 + OXA-9, isolate number 1, strains capable of hydrolysing cefotaxime
  results of the test: P
K. pneumoniae, SHV-11, isolate number 1, strains capable of hydrolysing cefotaxime
  results of the test: P
K. pneumoniae, SHV-12 + IMP-8, isolate number 1, strains capable of hydrolysing cefotaxime
  results of the test: P
K. pneumoniae, SHV-36 + TEM-1, isolate number 1, strains capable of hydrolysing cefotaxime
  results of the test: P
K. pneumoniae, SHV-38, isolate number 1, strains capable of hydrolysing cefotaxime
  results of the test: P
K. pneumoniae, TEM-3, isolate number 1, strains capable of hydrolysing cefotaxime
  results of the test: P
P. mirabilis, ACC-1, isolate number 1, strains capable of hydrolysing cefotaxime
  results of the test: P
P. mirabilis, CTX-M-71, isolate number 1, strains capable of hydrolysing cefotaxime
  results of the test: P
P. mirabilis, N/A, isolate number 1, strains not capable of hydrolysing cefotaxime
  results of the test: N
P. mirabilis, OXA-23, isolate number 1, strains not capable of hydrolysing cefotaxime
  results of the test: N
P. mirabilis, OXA-58, isolate number 1, strains not capable of hydrolysing cefotaxime
  results of the test: N
P. mirabilis, TEM-52, isolate number 1, strains capable of hydrolysing cefotaxime
  results of the test: P
Salmonella spp., N/A, isolate number 1, strains not capable of hydrolysing cefotaxime
  results of the test: N
